# Where “and” joins values, the source holds several entries; their conditions need not be identical. Equal values may be shown once. Read-outs that look alike come from different tables or passages of the source.
# How the values were obtained:
# [1] = biological target: T1, murine P-gp (Abcb1a/Mdr1a) (Mus musculus, UniProt P21447); assay: Concentration equilibrium transport assay (CETA), LLC-Mdr1a; assay type: in vitro ADME; settings: 100 nM
# T1 construct: expressed in transfected cells; host or cells: LLC-PK1 (LLC-Mdr1a)
# T1 sequence (P21447 whole entry): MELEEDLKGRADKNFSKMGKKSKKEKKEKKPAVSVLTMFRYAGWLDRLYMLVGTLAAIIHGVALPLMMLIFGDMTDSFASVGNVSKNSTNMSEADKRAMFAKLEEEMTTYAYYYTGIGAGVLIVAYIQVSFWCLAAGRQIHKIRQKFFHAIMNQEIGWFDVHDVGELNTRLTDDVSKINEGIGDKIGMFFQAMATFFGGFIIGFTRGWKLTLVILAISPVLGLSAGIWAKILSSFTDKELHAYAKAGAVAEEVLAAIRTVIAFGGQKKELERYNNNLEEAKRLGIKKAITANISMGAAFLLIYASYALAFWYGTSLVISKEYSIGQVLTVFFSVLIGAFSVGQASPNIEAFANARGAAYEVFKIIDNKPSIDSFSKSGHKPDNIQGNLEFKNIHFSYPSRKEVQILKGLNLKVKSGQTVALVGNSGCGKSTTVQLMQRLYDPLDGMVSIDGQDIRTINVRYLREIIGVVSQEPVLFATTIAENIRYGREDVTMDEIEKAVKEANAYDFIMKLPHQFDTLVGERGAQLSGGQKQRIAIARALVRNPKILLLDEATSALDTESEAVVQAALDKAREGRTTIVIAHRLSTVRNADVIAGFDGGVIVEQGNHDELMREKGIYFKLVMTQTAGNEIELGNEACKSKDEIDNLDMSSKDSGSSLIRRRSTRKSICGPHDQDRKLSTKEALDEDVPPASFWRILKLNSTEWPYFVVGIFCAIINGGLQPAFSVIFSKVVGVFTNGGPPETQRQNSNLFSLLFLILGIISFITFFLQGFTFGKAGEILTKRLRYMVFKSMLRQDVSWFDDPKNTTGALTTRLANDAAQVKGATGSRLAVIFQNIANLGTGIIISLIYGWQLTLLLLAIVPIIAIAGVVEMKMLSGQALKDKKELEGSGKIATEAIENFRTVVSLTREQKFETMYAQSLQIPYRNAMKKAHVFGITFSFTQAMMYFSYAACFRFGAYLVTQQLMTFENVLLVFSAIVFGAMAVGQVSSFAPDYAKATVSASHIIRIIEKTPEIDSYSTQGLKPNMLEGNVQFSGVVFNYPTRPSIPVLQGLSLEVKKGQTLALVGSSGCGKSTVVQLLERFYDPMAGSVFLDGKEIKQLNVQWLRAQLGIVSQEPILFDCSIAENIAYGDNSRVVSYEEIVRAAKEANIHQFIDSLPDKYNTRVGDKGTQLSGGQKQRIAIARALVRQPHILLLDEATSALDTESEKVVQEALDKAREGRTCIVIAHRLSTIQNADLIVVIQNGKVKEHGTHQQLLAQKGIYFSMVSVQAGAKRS
# Excerpt: (§1) Figure 1 Analysis of buparlisib substrate affinity for ABC transporters using in vitro transport assays. (A) The chemical structure of buparlisib. (B) A conventional transport assay (CTA) using LLC-PK1 cells in presence of zosuquidar to block endogenous (porcine) P-gp activity. […] (C) Concentration equilibrium transport assays (CETAs) using MDCK or LLC cells that overexpress murine BCRP, (Bcrp1), human BCRP, murine P-gp (Mdr1a) or human P-gp (MDR1). […] The P-gp inhibitor zosuquidar was used in all MDCK cell lines to inhibit endogenous P-gp activity and in LLC cell lines to validate possible P-gp-mediated translocations. […]
# (§2) Conventional bidirectional transport assays (CTAs) and concentration equilibrium transport assays (CETAs) were performed as described previously. […] Transwell leakiness was determined as Carboxyl-[^14C]-inulin translocation exceeding 1.5% per hour and these wells were excluded from the analysis. […]
# (§3) As described in detail before, CETA results were analysed with the General linear model repeated measures procedure of SPSS (v22; SPSS Inc, Chicago, IL)[25]. […] The standard error of the oral bioavailability was calculated using the formula below: SEF=F(SEAUCp.o./AUCp.o.)^2+(SEAUCi.v./AUCi.v.)^2 Buparlisib concentrations in WT and transporter knockout mice in vivo were compared using one-way analysis of variance followed by post hoc Bonferroni tests. […]
# human P-gp (ABCB1/MDR1) = biological target: T2, human P-gp (ABCB1/MDR1) (Homo sapiens, UniProt P08183); assay: Concentration equilibrium transport assay (CETA), LLC-MDR1; assay type: in vitro ADME; settings: 100 nM
# T2 construct: expressed in transfected cells; host or cells: LLC-PK1 (LLC-MDR1)
# T2 sequence (P08183 whole entry): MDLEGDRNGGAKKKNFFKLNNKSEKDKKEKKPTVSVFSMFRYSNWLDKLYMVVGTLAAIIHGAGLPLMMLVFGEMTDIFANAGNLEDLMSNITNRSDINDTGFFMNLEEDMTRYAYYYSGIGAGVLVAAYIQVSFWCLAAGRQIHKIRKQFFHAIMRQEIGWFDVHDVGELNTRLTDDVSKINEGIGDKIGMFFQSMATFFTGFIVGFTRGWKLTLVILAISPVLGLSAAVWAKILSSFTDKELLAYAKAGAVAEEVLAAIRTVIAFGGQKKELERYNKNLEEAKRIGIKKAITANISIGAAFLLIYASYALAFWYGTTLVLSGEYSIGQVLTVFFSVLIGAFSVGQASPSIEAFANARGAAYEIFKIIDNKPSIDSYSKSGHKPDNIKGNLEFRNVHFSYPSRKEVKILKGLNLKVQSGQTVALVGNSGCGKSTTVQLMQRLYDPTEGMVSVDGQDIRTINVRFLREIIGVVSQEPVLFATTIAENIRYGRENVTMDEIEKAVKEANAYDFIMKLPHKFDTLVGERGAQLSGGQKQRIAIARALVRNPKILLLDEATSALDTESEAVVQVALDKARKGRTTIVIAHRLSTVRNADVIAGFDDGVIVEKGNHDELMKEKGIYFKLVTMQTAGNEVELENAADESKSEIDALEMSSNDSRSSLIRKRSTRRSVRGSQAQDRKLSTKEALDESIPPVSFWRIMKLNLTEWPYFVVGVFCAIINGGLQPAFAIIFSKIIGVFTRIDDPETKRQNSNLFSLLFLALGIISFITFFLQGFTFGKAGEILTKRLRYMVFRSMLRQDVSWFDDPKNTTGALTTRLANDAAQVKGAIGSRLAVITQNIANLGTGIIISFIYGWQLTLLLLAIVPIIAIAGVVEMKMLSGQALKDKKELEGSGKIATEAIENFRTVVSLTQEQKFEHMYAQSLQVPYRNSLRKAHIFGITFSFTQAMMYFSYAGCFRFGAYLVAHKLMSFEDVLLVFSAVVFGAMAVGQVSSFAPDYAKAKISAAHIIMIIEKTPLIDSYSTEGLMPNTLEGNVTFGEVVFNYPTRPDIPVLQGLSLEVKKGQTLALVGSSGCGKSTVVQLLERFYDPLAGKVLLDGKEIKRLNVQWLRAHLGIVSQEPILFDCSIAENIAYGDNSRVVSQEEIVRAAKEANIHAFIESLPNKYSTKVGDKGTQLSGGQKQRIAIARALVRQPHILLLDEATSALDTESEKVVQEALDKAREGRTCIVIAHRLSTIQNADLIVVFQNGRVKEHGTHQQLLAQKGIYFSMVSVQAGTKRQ
# Excerpt: as §1, §2, §3
# [2] = Plasma pharmacokinetics after i.v. and oral administration in male and female mice; assay type: in vivo, FVB mice; settings: for bioavailability: p.o. (5 mg/kg) vs i.v. (2 mg/kg), read-out: F (oral bioavailability); for Vd/F: read-out: Vz/F
# Procedure: Finally, we studied the pharmacokinetics of buparlisib in male and female mice and assessed the oral bioavailability in both genders by comparing the area-under-the-plasma concentration-time-curves (AUCs) following intravenous and oral administration. Both after oral and i.v. administration there was no difference in pharmacokinetics between male and female mice (Fig. 3C, Table 1).
# The pharmacokinetics of buparlisib were analysed in WT, Abcg2^−/−, Abcb1a/b^−/− and Abcb1a/b; Abcg2^−/− FVB mice. All knockout mice strains have been developed within our institute[41]–[43]. For i.v. administration, buparlisib was dissolved in DMSO and injected at a dose of 2 mg/kg. For oral administration, buparlisib was formulated in DMSO:Cremophor EL:water (1:1:8 v/v/v) and administered at 1, 2 or 5 mg/kg as indicated. Tail vein bleeding was used to collect blood at intermediate time points, whereas at the last time point blood was drawn by cardiac puncture and various tissue were collected. Plasma was obtained from whole blood by centrifugation (5 min, 5,000 rpm, 4 °C). After weighing, tissues were homogenized using a FastPrep®-24 (MP-Biomedicals, NY) in 1% (w/v) bovine serum albumin in water. Buparlisib was extracted from plasma and tissue homogenate by liquid-liquid extraction with ethyl acetate using AZD8055 as an internal standard.
# Buparlisib was measured in samples from in vitro transport assays and in vivo pharmacokinetic studies using an LC-MS/MS system comprised of an UltiMate 3000 LC Systems (Dionex, Sunnyvale, CA) and an API 4000 mass spectrometer (Sciex, Framingham, MA). Samples were run through a Securityguard C18 pre-column (Phenomenex, Utrecht, The Netherlands) prior to separation on a ZORBAX Extend-C18 column (Agilent, Santa Clara, CA). Elution was done using a in a 5 minute gradient from 20% to 95% B (mobile phase A was 0.1% HCOOH in water (v/v) and mobile phase B was methanol). 95% B was maintained for 3 min followed by re-equilibration at 20% B. Multiple reaction monitoring was performed at 411.3/367.2 (buparlisib) and 418.2/138.4 (AZD8055). Analyst® 1.6.2 software (AB Sciex; Foster City, CA) was used for system control and data analysis.
# As described in detail before, CETA results were analysed with the General linear model repeated measures procedure of SPSS (v22; SPSS Inc, Chicago, IL)[25]. PK solver was used to determine pharmacokinetic parameters. The standard error of the oral bioavailability was calculated using the formula below: SEF=F(SEAUCp.o./AUCp.o.)^2+(SEAUCi.v./AUCi.v.)^2 Buparlisib concentrations in WT and transporter knockout mice in vivo were compared using one-way analysis of variance followed by post hoc Bonferroni tests. Statistical differences between the buparlisib PK parameters in male and female mice were calculated as Bonferroni corrected p-values using multiple Student’s t-tests. Differences were considered statistically significant when p < 0.05.
# [3] = FVB, mouse, plasma, iv, i.v. (2 mg/kg), female
# [4] = FVB, mouse, plasma, iv, i.v. (2 mg/kg), male
# [5] = FVB, mouse, plasma, po, p.o. (5 mg/kg), female
# [6] = FVB, mouse, plasma, po, p.o. (5 mg/kg), male
compound,measurement,setting,value
Nc1cc(C(F)(F)F)c(-c2cc(N3CCOCC3)nc(N3CCOCC3)n2)cn1 [buparlisib],substrate of murine P-gp,[1],not a substrate
same,substrate of human P-gp,human P-gp (ABCB1/MDR1),not a substrate
same,Cmax,[2]; [3],1900 ± 410 ng/mL
same,half-life,[2]; [3],1.6 ± 0.07 h
same,Vd,"[2]; FVB, mouse, plasma, iv, i.v. (2 mg/kg), female, read-out: Vz",0.86 ± 0.14 L/kg
same,Cmax,[2]; [4],2100 ± 190 ng/mL
same,half-life,[2]; [4],1.67 ± 0.07 h
same,Vd,"[2]; FVB, mouse, plasma, iv, i.v. (2 mg/kg), male, read-out: Vz",0.8 ± 0.23 L/kg
same,concentration at 24 h,"[2]; FVB, mouse, plasma, oral, mice, 5 mg/kg, read-out: plasma level after 24 h",< 1 ng/mL and < 2.4 nM
same,bioavailability,"[2]; FVB, mouse, plasma, oral, female",112 ± 21.1%
same,bioavailability,"[2]; FVB, mouse, plasma, oral, male",103 ± 26.1%
same,CL/F,[2]; [5],5.33 mL/min/kg
same,Cmax,[2]; [5],3000 ± 490 ng/mL
same,Tmax,[2]; [5],0.67 ± 0.39 h
same,half-life,[2]; [5],1.4 ± 0.04 h
same,Vd/F,[2]; [5],0.63 ± 0.08 L/kg
same,CL/F,[2]; [6],5.17 mL/min/kg
same,Cmax,[2]; [6],3300 ± 1300 ng/mL
same,Tmax,[2]; [6],1 h
same,half-life,[2]; [6],1.44 ± 0.06 h
same,Vd/F,[2]; [6],0.64 ± 0.03 L/kg
same,oral bioavailability,"[2]; both genders, dose-corrected AUC oral vs i.v.",complete
same,Vd,"[2]; both sexes, FVB, mouse, plasma, intravenous, 2 mg/kg, mice, read-out: volume of distribution",< 1 L/kg
same,CL,"[2]; i.v. (2 mg/kg), female",0.37 ± 0.06 L/kg^.h
same,Plasma AUC 0-∞,"[2]; i.v. (2 mg/kg), female",5600 ± 860 ng/ml^.h
same,CL,"[2]; i.v. (2 mg/kg), male",0.33 ± 0.09 L/kg^.h
same,Plasma AUC 0-∞,"[2]; i.v. (2 mg/kg), male",6300 ± 1500 ng/ml^.h
same,difference in pharmacokinetics between male and female mice,[2]; oral and i.v. administration,no difference
same,Plasma AUC 0-∞,"[2]; p.o. (5 mg/kg), female",16000 ± 1700 ng/ml^.h
same,Plasma AUC 0-∞,"[2]; p.o. (5 mg/kg), male",16000 ± 1200 ng/ml^.h
